A short description of series [1]: Hemolysis assay. The class given is cell-based. To be noted: for HC50 at 1 h: human, washed erythrocytes from EDTA-blood, pH 7.4. The method, then: For the hemolysis assays EDTA-blood was centrifuged at 800×g for 10 min, and the plasma and buffy coat were removed. The erythrocytes were washed three times and resuspended in 5% PBS, pH 7.4. The cells were then incubated with end-over-end rotation for 1 h at 37° C. in the presence of different concentrations of peptides (0, 3, 10, 30, 60 μm). 0.1% Triton X-100 (Sigma-Aldrich) served as positive control. The samples were then centrifuged at 800×g for 10 min.
The absorbance of hemoglobin release was measured at 540 nm and is expressed as % of Triton X-100-induced hemolysis. These values of triplicates were plotted with Graph Pad Prism 4 as a dose response curve and the CC50 was determined.

Series [2] can be described thus: Cytotoxicity (resazurin) assay. The method, then: For the cytotoxicity (resazurin) assay, HEK293 cells were counted manually in a Neubauer haemocytometer and plated at a density of 4000 cells/well into each well of the 384-well plates containing the 25×(2 μl) concentrated compounds. The medium used was Dulbecco's modified eagle medium (DMEM) supplemented with 10% foetal bovine serum (FBS). Cells were incubated together with the compounds for 20 h at 37° C., 5% CO2. To measure cytotoxicity, 5 μl (equals 100 μM final) resazurin was added to each well after incubation, and incubated for further 3 h at 37° C. with 5% CO2.
After final incubation fluorescence intensity was measured as F ex 560/10 nm, em 590/10 nm (F560/590) using a Tecan M1000 Pro monochromator plate reader. […] The concentration dependent percentage cytotoxicity was fitted to a dose response function (using Pipeline Pilot) and CC50 values determined.

For series [3], the system named is P. aeruginosa ATCC 10145. The series is described as follows: CFU-assay, P. aeruginosa-cidal activity. The class given is cell-based, Pseudomonas aeruginosa.
The test system of series [4] is S. aureus ATCC 6538. Description: CFU-assay, S. aureus-cidal activity. The class given is cell-based, Staphylococcus aureus. Here is the method: Thus, within the present invention, the antimicrobial activity is generally measured in nutrient deficient 10 mM sodium phosphate buffer pH 5.5, containing 0.25% glucose, using the CFU-assay according to Steinberg and Lehrer, 1997 (supra), unless otherwise indicated. The CFU-assay allows determination of the minimal bactericidal concentration (MBC, e.g., MBC90 and MBC100; i.e. the concentration of compound required to achieve a specified reduction in bacterial cell number (microbial death or killing)).
Various peptides corresponding to repeat domains of hornerin (HR 1-11: HRNR 2606-2628; HR 1-17: HRNR 2656-2684 and HR 1-18: HRNR 2656-2677) were tested for P. aeruginosa ATCC 10145-cidal activity in 10 mM Na-phosphate buffer pH 5.5, containing 0.25% glucose by counting the numbers of colonies of surviving bacteria at serial, twofold dilutions from 300 μg/ml down to 19 ng/ml of each peptide (CFU-assay; Steinberg and Lehrer, 1997, Methods Mol. Biol. 78, 169-186).
Staphylococcus aureus is a major skin pathogen, which causes skin infections, in particular in atopic dermatitis. The sensitivity of S. aureus ATCC 6538 towards several CIDAMPs was assessed using the CFU-assay as above (see Example 1). HR 1-18, which lacks S. aureus.-bactericidal activity, is converted in a S. aureus-cidal peptide, when all His are replaced by Arg (HR 1-18 4H-4R; see Table 13 and FIG. 9). […] HR 1-18 4H-4R is rich in Ser and Arg and contains a single Leu residue. When this single Leu was replaced by Gly in S. aureus-cidal HR 1-18 4H-4R (forming HR 1-18 4H-4R/L-G), S. aureus-cidal activity was abolished at both pH 7.0 and pH 5.5 (see Table 13 and FIG. 9).

Series [5] relates to Candida albicans ATCC 24433. Description: CFU-assay, Candida albicans-cidal activity. The series is classed as cell-based. The method, then: Thus, within the present invention, the antimicrobial activity is generally measured in nutrient deficient 10 mM sodium phosphate buffer pH 5.5, containing 0.25% glucose, using the CFU-assay according to Steinberg and Lehrer, 1997 (supra), unless otherwise indicated. The CFU-assay allows determination of the minimal bactericidal concentration (MBC, e.g., MBC90 and MBC100; i.e. the concentration of compound required to achieve a specified reduction in bacterial cell number (microbial death or killing)). […]
HR 1-17 affects C. albicans ATCC 24433 with highest activity at pH 5.5 in the absence of TSB in the medium (see Tables 12, 24). […] Furthermore, the substitution of any of the Arg residues by Gly leads to a dramatic reduction or loss of candidacidal activity (see Table 24).

Series [6] relates to C. neoformans. To be noted: standard conditions at pH 7.4; activity at concentration <32 pg/ml.
In series [7] the test system is C. albicans ATCC 928. The settings on record: standard conditions at pH 7.4; activity at concentration <32 pg/ml.

“And” between values parts separate entries of the source, which are not always exact repeats. Equal values may be shown once. Residues, ends and D or L forms follow the SMILES beside them. No end group written: not given here.

By HC50 is commonly meant the concentration giving 50% haemolysis. Read a high HC50 as less damage to red cells. What is called CC50 is the concentration that lowers cell viability or growth by half. As for GRRGSGLGRSSSRGGRGSGSGR [HR 1-18 4H-4R], in series [1], the HC50 at 1 h is over 150 µM. This compound returned a CC50 in series [2] of over 15.2 µM. For the same compound, the MBC90 was 0.038 µg/mL in series [3] (pH 5.0, 0.25% glucose); 2.35 µg/mL in series [3] (pH 6.0, 0.25% glucose); 2.35 µg/mL in series [3] (pH 6.5, 0.25% glucose); 2.38 µg/mL and 2.35 µg/mL in series [3] (pH 7.0, 0.25% glucose); 150 µg/mL in series [4] (pH 5.5, 0.25% glucose); 9.35 µg/mL and 9.375 µg/mL in series [4] (pH 7.0, 0.25% glucose). Also, the MBC100 in series [3] (pH 5.0, 0.25% glucose) is 0.15 µg/mL; in series [3] (pH 6.0, 0.25% glucose) it was 4.7 µg/mL; in series [3] (pH 6.5, 0.25% glucose), 4.7 µg/mL; in series [3] (pH 7.0, 0.25% glucose), 9.38 µg/mL; in series [4] (pH 5.5, 0.25% glucose) it was over 300 µg/mL; in series [4] (pH 7.0, 0.25% glucose) it was over 300 µg/mL. Moreover, the “P. aeruginosa MBC90” value in series [3] (pH 5.5) came to 0.018 µM. For the same compound, the “P. aeruginosa MBC100” value in series [3] (pH 5.5) was determined as 0.142 µM. Further, the “S. aureus MBC90” value in series [4] (pH 7.0) is 4.46 µM. In addition, the “S. aureus MBC100” value in series [4] (pH 7.0) was over 143 µM. For the same compound, the max.killing entry in series [4] (pH 7.0, 0.25% glucose) is “max.killing: 98.8%”.
Take “HGSRSGQSSRGERHGSSSGSSSH (Peptide derived from human hornerin (HR 1-11))”: the MBC90 in series [5] (pH 5.5, 0.25% glucose) was 9.38 µg/mL; in series [3] (pH 5.0, 0.25% glucose), 0.075 µg/mL; in series [3] (pH 5.5, 1% TSB) it was 2.35 µg/mL. Moreover, the MBC100 is 150 µg/mL in series [5] (pH 5.5, 0.25% glucose); 2.35 µg/mL in series [3] (pH 5.0, 0.25% glucose); 2.35 µg/mL in series [3] (pH 5.5, 0.25% glucose); over 300 µg/mL in series [3] (pH 5.5, 1% TSB).
Regarding `N=C(N)NCCC[C@H](NC(=O)[C@H](CCCNC(=N)N)NC(=O)[C@H](CS)NC(=O)[C@H](CCCNC(=N)N)NC(=O)[C@H](Cc1c[nH]cn1)NC(=O)[C@H](CO)NC(=O)[C@H](CCCNC(=N)N)NC(=O)[C@H](CS)NC(=O)[C@H](CS)NC(=O)[C@H](CCCNC(=N)N)NC(=O)[C@H](Cc1c[nH]cn1)NC(=O)[C@H](Cc1c[nH]cn1)NC(=O)[C@@H](N)CO)C(=O)O` [LCE3B56-68] (H-SHHRCCRSHRCRR-OH; N-terminus and C-terminus assumed), in series [1], the CC50 is over 300 µg/mL and the HC50 at 1 h was over 113 µM. Besides, the CC50 in series [2] is > 32 µg/mL and > 18.9 µM. In series [4] (pH 5.5), the “S. aureus MBC90” value was determined as 0.044 µM and the “S. aureus MBC100” value was over 88.7 µM. Besides, in series [4] (pH 5.5, 0.25% glucose), the MBC90 came out at 0.075 µg/mL, the MBC100 is over 150 µg/mL and the max.killing entry was “max.killing: 99.3%”. For the same compound, the MBC90 in series [4] (pH 5.5, 0.25% glucose (text)) was determined as 0.044 µM. Also, the “Antifungal activity, C. neoformans ATCC 208821” value in series [6] was “A (A-active)”. In addition, in series [7], the “Antifungal activity, C. albcans ATCC90028” value was “I (I-inactive)”.
Turning to “HAHSGHGQSTQRGSRTAGRRGSGH (Peptide derived from human filaggrin-2 (FLG-2 2082-2105)) [FLG-22082-2105]”, the “reduction of candidacidal activity at pH 7.2 versus pH 5.5 (fold)” value in series [5] (pH 7.2 vs pH 5.5) was about 50 fold. Further, in series [3] (pH 5.5, 0.25% glucose), the MBC90 is under 0.075 µg/mL and the MBC100 stood at 0.038 µg/mL.
“GRHGSGLGHSSSHGQHGSGSGGSSSRGPY (Modified peptide derived from human hornerin (HR 1-17 R2677G))”: in series [5] (pH 5.5, 1% TSB), the MBC90 turned out to be 300 µg/mL and the MBC100 was over 300 µg/mL. In series [3] (pH 5.0, 0.25% glucose), this compound registered an MBC90 of 0.0375 µg/mL and an MBC100 of 0.15 µg/mL.

The values above are taken from US11479587B2, “Cationic intrinsically disordered antimicrobial peptides” (priority 2016, dated 2022).
